Assay results from PubChem BioAssay AID226 (DTP/NCI, 2004).
Values joined by “and” are separate entries in the source; they are usually repeats but may differ in a detail not shown here. Identical values can stand only once. Toxic doses and inconclusive results are not listed.

Tested on: B6C3F1 mice, intracerebral ependymoblastoma, median survival T/C
Assay: NCI In Vivo Anticancer Drug Screen. Data for tumor model Ependymoblastoma (intracerebral) in B6C3F1 mice
Details: endpoint: median survival time, higher = longer survival
Description: The antitumor activity of compounds was measured in mice bearing transplantable tumors. Survival or tumor size were measured and the results are expressed as the measurement made in the treated group (T) divided by the measurement made in the vehicle treated control group (C). The tumor model used in this assay is Ependymoblastoma (intracerebral) in B6C3F1 mice

[1] = dose: 128.0 mg/kg/injection, schedule: Q01DX005 (ip), vehicle: saline with Tween-80
[2] = dose: 128.0 mg/kg/injection, schedule: Q01DX005 (ip), vehicle: saline
[3] = dose: 256.0 mg/kg/injection, schedule: Q01DX005 (ip), vehicle: saline with Tween-80
[4] = dose: 256.0 mg/kg/injection, schedule: Q01DX005 (ip), vehicle: saline
[5] = dose: 512.0 mg/kg/injection, schedule: Q01DX005 (ip), vehicle: saline with Tween-80
[6] = dose: 512.0 mg/kg/injection, schedule: Q01DX005 (ip), vehicle: saline
[7] = dose: 64.0 mg/kg/injection, schedule: Q01DX005 (ip), vehicle: saline
[8] = dose: 100.0 mg/kg/injection, schedule: Q01DX005 (ip), vehicle: Klucel (hydroxypropylcellulose) (HPC)
[9] = dose: 200.0 mg/kg/injection, schedule: Q01DX005 (ip), vehicle: Klucel (hydroxypropylcellulose) (HPC)
[10] = dose: 200.0 mg/kg/injection, schedule: Q01DX005 (ip), vehicle: saline

SMILES: Nc1nc2c(c(=O)[nH]1)N(C=O)C(CNc1ccc(C(=O)N[C@@H](CCC(=O)O)C(=O)O)cc1)CN2 (some centres undefined)
- T/C [1]: 101 % of control
- T/C [2]: 104 % of control
- T/C (dose: 150.0 mg/kg/injection, schedule: Q04DX003 (ip), vehicle: saline): 104 % of control
- T/C [3]: 96 % of control
- T/C [4]: 98 % of control
- T/C (dose: 300.0 mg/kg/injection, schedule: Q04DX003 (ip), vehicle: saline): 115 % of control
- T/C [5]: 101 % of control
- T/C [6]: 96 % of control
- T/C (dose: 600.0 mg/kg/injection, schedule: Q04DX003 (ip), vehicle: saline): 101 % of control
- T/C (dose: 1200.0 mg/kg/injection, schedule: Q04DX003 (ip), vehicle: saline): 115 % of control

SMILES: O=C(O)c1ccc(C(=O)O)c(C(=O)O)c1.[NH-]C1CCCCC1[NH-].[Pt+2]
- T/C (dose: 0.25 mg/kg/injection, schedule: Q01DX005 (ip), vehicle: dextrose): 92 % of control and 101 % of control
- T/C (dose: 0.5 mg/kg/injection, schedule: Q01DX005 (ip), vehicle: dextrose): 100 % of control and 118 % of control
- T/C (dose: 1.0 mg/kg/injection, schedule: Q01DX005 (ip), vehicle: dextrose): 95 % of control and 100 % of control
- T/C (dose: 2.0 mg/kg/injection, schedule: Q01DX005 (ip), vehicle: dextrose): 100 % of control and 105 % of control
- T/C (dose: 4.0 mg/kg/injection, schedule: Q01DX005 (ip), vehicle: dextrose): 98 % of control and 114 % of control

SMILES: O=c1ccn(C2OC(CO)C(O)C2O)c(=O)[nH]1 (centres undefined)
- T/C (dose: 64.0 mg/kg/injection, schedule: Q01DX005 (ip), vehicle: saline with Tween-80): 113 % of control
- T/C [7]: 109 % of control
- T/C [1]: 90 % of control
- T/C [2]: 94 % of control
- T/C [3]: 109 % of control
- T/C [4]: 100 % of control
- T/C [5]: 99 % of control
- T/C [6]: 94 % of control
- T/C (dose: 1024.0 mg/kg/injection, schedule: Q01DX005 (ip), vehicle: saline with Tween-80): 99 % of control
- T/C (dose: 1024.0 mg/kg/injection, schedule: Q01DX005 (ip), vehicle: saline): 96 % of control

SMILES: O=C(O)CC(NC(=O)CP(=O)(O)O)C(=O)O (centres undefined)
- T/C (dose: 1.0 mg/kg/injection, schedule: Q01DX005 (ip), vehicle: saline): 117 % of control
- T/C (dose: 2.0 mg/kg/injection, schedule: Q01DX005 (ip), vehicle: saline): 104 % of control
- T/C (dose: 4.0 mg/kg/injection, schedule: Q01DX005 (ip), vehicle: saline): 108 % of control
- T/C (dose: 8.0 mg/kg/injection, schedule: Q01DX005 (ip), vehicle: saline): 104 % of control
- T/C (dose: 16.0 mg/kg/injection, schedule: Q01DX005 (ip), vehicle: saline): 107 % of control
- T/C (dose: 27.0 mg/kg/injection, schedule: Q#ADX018 (ip), vehicle: saline): 99 % of control
- T/C (dose: 32.0 mg/kg/injection, schedule: Q01DX005 (ip), vehicle: saline): 101 % of control and 111 % of control
- T/C (dose: 32.0 mg/kg/injection, schedule: Q04DX003 (ip), vehicle: saline): 96 % of control
- T/C (dose: 45.0 mg/kg/injection, schedule: Q01DX009 (ip), vehicle: saline with Tween-80): 90 % of control
- T/C (dose: 45.0 mg/kg/injection, schedule: Q12HX010 (ip), vehicle: saline): 103 % of control
- T/C (dose: 45.0 mg/kg/injection, schedule: Q#A X010 (ip), vehicle: saline): 180 % of control
- T/C (dose: 45.0 mg/kg/injection, schedule: Q#ADX018 (ip), vehicle: saline): 102 % of control
- T/C [7]: 104 % of control and 114 % of control
- T/C (dose: 64.0 mg/kg/injection, schedule: Q04DX003 (ip), vehicle: saline): 109 % of control
- T/C (dose: 90.0 mg/kg/injection, schedule: Q01DX005 (ip), vehicle: saline): 95 % of control and 100 % of control
- T/C (dose: 90.0 mg/kg/injection, schedule: Q01DX009 (ip), vehicle: saline with Tween-80): 109 % of control
- T/C (dose: 90.0 mg/kg/injection, schedule: Q#A X010 (ip), vehicle: saline): 187 % of control
- T/C (dose: 90.0 mg/kg/injection, schedule: Q#ADX018 (ip), vehicle: saline): 95 % of control
- T/C (dose: 100.0 mg/kg/injection, schedule: Q12HX010 (ip), vehicle: saline): 109 % of control
- T/C [2]: 101 % of control and 117 % of control
- T/C (dose: 128.0 mg/kg/injection, schedule: Q04DX003 (ip), vehicle: saline): 105 % of control
- T/C (dose: 180.0 mg/kg/injection, schedule: Q01DX005 (ip), vehicle: saline): 106 % of control and 110 % of control
- T/C (dose: 180.0 mg/kg/injection, schedule: Q12HX010 (ip), vehicle: saline): 107 % of control
- T/C (dose: 180.0 mg/kg/injection, schedule: Q#A X010 (ip), vehicle: saline): 172 % of control
- T/C [4]: 110 % of control
- T/C (dose: 256.0 mg/kg/injection, schedule: Q04DX003 (ip), vehicle: saline): 114 % of control

SMILES: CCCC(=O)OCC1OC(n2cnc3c(=S)nc(N)[nH]c32)C(OC(=O)CCC)C1OC(=O)CCC (centres undefined)
- T/C (dose: 3.12 mg/kg/injection, schedule: Q01DX005 (ip), vehicle: Klucel (hydroxypropylcellulose) (HPC)): 102 % of control and 113 % of control
- T/C (dose: 6.25 mg/kg/injection, schedule: Q01DX005 (ip), vehicle: Klucel (hydroxypropylcellulose) (HPC)): 98 % of control and 104 % of control
- T/C (dose: 12.5 mg/kg/injection, schedule: Q01DX005 (ip), vehicle: Klucel (hydroxypropylcellulose) (HPC)): 106 % of control

SMILES: CC(=O)OCC1OC(n2ccc(N)nc2=O)C(OC(C)=O)C1OC(C)=O (centres undefined)
- T/C (dose: 50.0 mg/kg/injection, schedule: Q01DX005 (ip), vehicle: Klucel (hydroxypropylcellulose) (HPC)): 98 % of control
- T/C [8]: 102 % of control
- T/C [9]: 117 % of control

SMILES: Cc1ncc(CNC(=O)N(CCCl)N=O)c(N)n1
- T/C (dose: 8.0 mg/kg/injection, schedule: Q01DX001 (ip), vehicle: water): 108 % of control and 121 % of control
- T/C (dose: 16.0 mg/kg/injection, schedule: Q01DX001 (ip), vehicle: water): 175 % of control
- T/C (dose: 32.0 mg/kg/injection, schedule: Q01DX001 (ip), vehicle: water): 262 % of control and 267 % of control

SMILES: OC(CBr)C(O)C(O)C(O)CBr (centres undefined)
- T/C (dose: 2.0 mg/kg/injection, schedule: Q01DX005 (ip), vehicle: Klucel (hydroxypropylcellulose) (HPC)): 102 % of control
- T/C (dose: 4.0 mg/kg/injection, schedule: Q01DX005 (ip), vehicle: Klucel (hydroxypropylcellulose) (HPC)): 106 % of control
- T/C (dose: 50.0 mg/kg/injection, schedule: Q01DX005 (ip), vehicle: saline): 122 % of control
- T/C [8]: 97 % of control
- T/C [9]: 109 % of control
- T/C [10]: 118 % of control and 195 % of control and 233 % of control

SMILES: C1CN(P2(N3CC3)=NP(N3CC3)(N3CC3)=NP(N3CC3)(N3CC3)=N2)CCO1 (centres undefined)
- T/C (dose: 20.0 mg/kg/injection, schedule: Q01DX001 (ip), vehicle: saline): 101 % of control
- T/C (dose: 40.0 mg/kg/injection, schedule: Q01DX001 (ip), vehicle: saline): 102 % of control
- T/C (dose: 80.0 mg/kg/injection, schedule: Q01DX001 (ip), vehicle: saline): 96 % of control

SMILES: S=P(N1CC1)(N1CC1)N1CC1.[Cl-].[Cl-].[NH2-].[NH2-].[Pt+4]
- T/C (dose: 3.0 mg/kg/injection, schedule: Q01DX005 (ip), vehicle: dextrose): 122 % of control
- T/C (dose: 6.0 mg/kg/injection, schedule: Q01DX005 (ip), vehicle: dextrose): 155 % of control

SMILES: CN(C)CC(=O)c1ccc(O)c(O)c1
- T/C (dose: 100.0 mg/kg/injection, schedule: Q01DX005 (ip), vehicle: saline): 100 % of control
- T/C [10]: 94 % of control
- T/C (dose: 400.0 mg/kg/injection, schedule: Q01DX005 (ip), vehicle: saline): 106 % of control
- T/C (dose: 800.0 mg/kg/injection, schedule: Q01DX005 (ip), vehicle: saline): 108 % of control

SMILES: ClC1=C(Cl)C2(Cl)C3C(Cl)C(Cl)CC3C1(Cl)C2(Cl)Cl (centres undefined)
- T/C (dose: 6.0 mg/kg/injection, schedule: Q01DX005 (ip), vehicle: saline with Tween-80): 99 % of control and 100 % of control and 105 % of control
- T/C (dose: 6.25 mg/kg/injection, schedule: Q01DX005 (ip), vehicle: other): 101 % of control
- T/C (dose: 12.0 mg/kg/injection, schedule: Q01DX005 (ip), vehicle: saline with Tween-80): 95 % of control and 96 % of control and 105 % of control
- T/C (dose: 12.5 mg/kg/injection, schedule: Q01DX005 (ip), vehicle: other): 108 % of control
- T/C (dose: 24.0 mg/kg/injection, schedule: Q01DX005 (ip), vehicle: saline with Tween-80): 96 % of control and 105 % of control and 87 % of control
- T/C (dose: 25.0 mg/kg/injection, schedule: Q01DX005 (ip), vehicle: other): 98 % of control
- T/C (dose: 45.0 mg/kg/injection, schedule: Q01DX005 (ip), vehicle: saline with Tween-80): 94 % of control and 101 % of control and 110 % of control
- T/C (dose: 50.0 mg/kg/injection, schedule: Q01DX005 (ip), vehicle: other): 109 % of control
- T/C (dose: 90.0 mg/kg/injection, schedule: Q01DX005 (ip), vehicle: saline with Tween-80): 101 % of control and 86 % of control and 89 % of control
